{
  "source": "patent US20260034135A1",
  "about": "“USE OF N6-BENZYLAMINOPURINE AS AN APPETITE SUPPRESSANT” (THE GOVERNING COUNCIL OF THE UNIVERSITY OF TORONTO, priority 2022, published 2026)",
  "system": "insulin receptor subunit beta (InsRb)",
  "test": "Insulin receptor subunit beta protein level by Western blot in mHypoE-46",
  "assay_type": "cell-based, mouse",
  "description": "mHypoE-46 cells were serum starved in 5.5 mM glucose (LG) DMEM for 1 hour prior to treatment with vehicle (0.1% DMSO), 100 µM BAP or H20, […] 5-Aminoimidazole-4-carboxamide ribonucleotide (AICAR) or 0 mM glucose DMEM. Protein was harvested using 1× cell lysis buffer (Cell Signaling Technologies, Inc, CST) containing protease and phosphatase inhibitors. A total of 30 μg protein was separated on a 12% SDS-polyacrylamide gels and transferred onto PVDF membranes. Membranes were blocked in 5% milk dissolved in Tris-buffered saline with Tween 20 (TBS-T) for 1 h and incubated with primary antibody overnight at 4° C. phospho-AMPKα (Thr172; cat. 2532S, CST), and total AMPKα (cat. 2535S, CST); phospho-p70-S6K (Thr389; cat. 9205S, CST) and total p70-S6K (cat. 9202S, CST); insulin receptor ß (cat. 3025S, CST); phospho-AKT (Ser473; cat. 9271S, CST) and total AKT (cat. 9272S, CST); phospho-ERK1/2 (Thr202/Tyr204; cat. 9101, CST) and total ERK (cat. 4695, CST) were diluted 1:1000 in 5% milk in TBS-T. Membranes were washed and incubated with secondary HRP-linked antirabbit antibody (1:7500 in 5% milk in TBS-T, CST) for 1 h, washed, and imaged using the Signal Fire ECL Reagent (CST) on the iBright 1500 Imaging System (Thermofisher). Protein density was quantified using ImageJ or the iBright Imaging System.\nThe mHypoE-46 neurons were exposed to […] BAP for 16 h followed by RNA isolation. […]",
  "data": [
    {"smiles": "c1ccc(CNc2ncnc3nc[nH]c23)cc1", "note": "[BAP, N6-benzylaminopurine]", "values": [
      {"measurement": "InsR protein level in response to cellular insulin resistance, BAP relative to vehicle control", "setting": "100 μM BAP 24 h, insulin pre-treatment (100 μM, 24 h)", "value": "no change"},
      {"measurement": "basal levels of InsRb protein", "setting": "100 μM BAP, 24 hours", "value": "significantly increased"}
    ]}
  ]
}
